From ChEMBL document CHEMBL2157867, “2-(4-Chlorophenyl)-2-oxoethyl 4-benzamidobenzoate derivatives, a novel class of SENP1 inhibitors: Virtual screening, synthesis and biological evaluation” (Bioorg Med Chem Lett, 2012)

Target: T1, Sentrin-specific protease 1 (Homo sapiens, UniProt Q9P0U3)
T1 sequence (Q9P0U3 whole entry): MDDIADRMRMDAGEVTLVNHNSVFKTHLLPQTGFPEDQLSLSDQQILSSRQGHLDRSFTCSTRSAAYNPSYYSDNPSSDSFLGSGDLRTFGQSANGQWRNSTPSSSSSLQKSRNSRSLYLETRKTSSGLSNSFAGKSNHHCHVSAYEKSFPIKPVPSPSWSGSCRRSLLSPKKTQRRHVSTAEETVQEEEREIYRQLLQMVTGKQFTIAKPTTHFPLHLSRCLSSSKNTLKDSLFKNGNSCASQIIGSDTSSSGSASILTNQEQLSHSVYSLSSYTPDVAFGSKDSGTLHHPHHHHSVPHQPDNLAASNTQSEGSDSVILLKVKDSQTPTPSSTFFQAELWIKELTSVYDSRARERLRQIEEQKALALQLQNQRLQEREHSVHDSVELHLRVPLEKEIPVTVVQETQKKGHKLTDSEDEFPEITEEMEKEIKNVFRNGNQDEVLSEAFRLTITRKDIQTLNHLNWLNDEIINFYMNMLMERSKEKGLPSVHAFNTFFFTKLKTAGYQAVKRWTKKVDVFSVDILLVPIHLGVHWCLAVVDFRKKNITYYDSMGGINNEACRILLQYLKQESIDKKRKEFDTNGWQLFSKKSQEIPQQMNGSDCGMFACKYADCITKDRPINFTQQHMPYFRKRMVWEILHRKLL
Assay: Inhibition of recombinant His-tagged SENP1 catalytic domain expressed in Escherichia coli BL21(DE3) using His-tagged deltaRanGAP-SUMO2 as substrate incubated for 10 mins prior to substrate addition measured after 45 mins by SDS-PAGE analysis

IC50, > 50 µM:
Nc1cccc(C(=O)Nc2ccc(C(=O)OCC(=O)c3ccc(Cl)cc3)cc2)c1
CCOc1ccc(C(=O)Nc2ccc(C(=O)OCC(=O)c3ccc(Cl)cc3)cc2)cc1OCC
O=C(COC(=O)c1ccc(NC(=O)c2cccc(O)c2)cc1)c1ccc(Cl)cc1
COc1ccc(C(=O)Nc2ccc(C(=O)OCC(=O)c3ccc(Cl)cc3)cc2)cc1OC
